From patent publication US8604076B2, “Method for producing a pharmaceutical composition comprising rotigotine” (UCB Pharma GmbH, priority 2000, dated 2013)

Key:
[1] = release of N-0923 from the depot form, plasma level and bioavailability; type: in vivo; settings: depot formulation according to the invention, read-out: bioavailability of the pharmaceutical composition according to the invention
Protocol: Sprague-Dawley rats were given subcutaneous bolus injections of an oily N-0923 crystalline suspension of the following composition:
6, 24 and 48 hours after the 2nd and 46th administration plasma samples were taken and the N-0923 concentration was analyzed using LC-MS-MS. The readings from 6 animals were averaged.
The test conditions were identical to those in implementation example 5 except that every 48 hours a dose of 12.5 mg N-0923 per kg body weight was applied.
Readings were taken 2, 4, 8, 24, 32 and 48 hours after the 22nd application and were quantified.

[2] = release of N-0923 from the depots in the monkey, dose versus plasma level; type: in vivo, Cynomolgus monkeys; settings: oily crystalline suspensions, FIG. 4, after 3 and 85 daily applications
Protocol: Cynomolgus monkeys were given daily subcutaneous bolus injections of oily N-0923 crystalline suspensions of the following composition: The application was performed daily in dosages of 0.25, 1 and 4 mg/kg. 2, 6 and 24 hours after the 3rd and 85th application plasma samples were taken and analyzed using LC-MS-MS.

[3] = distinct first-pass effect; cited from earlier work
[4] = monkeys, aqueous solution; cited from earlier work
[5] = aqueous solution (5% dextrose); cited from earlier work

Q: What does the source list for `CCCN(CCc1cccs1)[C@H]1CCc2c(O)cccc2C1` [N-0923, S(-)-2-(N-propyl-N-2-thienylethylamino)-5-hydroxytetralin]?
A: bioavailability [1]: > 70%; relation of active-agent plasma levels to the dose introduced in the body [2]: largely linear relation; bioavailability after oral administration [3]: about 0.5%; half-time value after intravenous injection [4]: 52 min; time for which the subcutaneous injection was effective [5]: 60 to 70 min
